According to US20190298735A1, “TREATMENT AND PREVENTION OF CLOSTRIDIUM DIFFICILE COLITIS USING MISOPROSTOL” (Vanderbilt University, priority 2016, published 2019):
Entries after “also recorded” stand apart in the source; their conditions may differ.

Key:
PGE2 EP receptors = conditions: cited from earlier work
NAP1/BI/027 strain M7404 = assay: Misoprostol in acute CDI mouse model (survival, FITC-dextran intestinal permeability, diarrhea); type: in vivo, mice; conditions: for CDI severity: mice, M7404 spores, daily misoprostol IP vs vehicle
esophageal ulcer = conditions: rats, cited from earlier work
[1] = system: human esophageal epithelial (HET-1A) cells; conditions: cited from earlier work
C. difficile strain 630 = assay: Colonization levels of C. difficile in the cecum of infected mice; type: in vivo; conditions: strain 630, 96 hr post infection, misoprostol vs vehicle
Protocol: FIG. 5. […] (A) Mice were infected by gavage with 10^6 spores of the NAP1/BI/027 strain […] and treated daily with the PGE analogue misoprostol (or vehicle) by intraperitoneal (IP) injection. n=5 per group. (B) To assess intestinal permeability mice were infected with […] of […] and given misoprostol 20 μg/mouse by IP injection 30 min before infection, 24 hr post-infection and at the time of FITC-dextran treatment. 2 d post infection mice were gavaged with FITC-dextran or vehicle control, then euthanized 4 hr later and concentrations of FITC-dextran in plasma were determined (*P<0.05). (C) Colonization levels of C. difficile strain 630 in the cecum for infected mice exposed to misoprostol or vehicle 96 hr post infection (*P<0.05).

[2] = human; cited from earlier work
strain M7404 = assay: Misoprostol in indomethacin-exposed CDI mice; type: in vivo, Female C57BL/6 mice
[3] = target: T1, prostaglandin E2 receptor 4 (EP4) receptor (Mus musculus, UniProt P32240); conditions: another mouse model, oral administration; cited from earlier work
T1 construct: endogenous in cells; host or cells: mouse, in vivo (colon tissue); result quoted from Watanabe et al. 2015
T1 sequence (P32240 whole entry): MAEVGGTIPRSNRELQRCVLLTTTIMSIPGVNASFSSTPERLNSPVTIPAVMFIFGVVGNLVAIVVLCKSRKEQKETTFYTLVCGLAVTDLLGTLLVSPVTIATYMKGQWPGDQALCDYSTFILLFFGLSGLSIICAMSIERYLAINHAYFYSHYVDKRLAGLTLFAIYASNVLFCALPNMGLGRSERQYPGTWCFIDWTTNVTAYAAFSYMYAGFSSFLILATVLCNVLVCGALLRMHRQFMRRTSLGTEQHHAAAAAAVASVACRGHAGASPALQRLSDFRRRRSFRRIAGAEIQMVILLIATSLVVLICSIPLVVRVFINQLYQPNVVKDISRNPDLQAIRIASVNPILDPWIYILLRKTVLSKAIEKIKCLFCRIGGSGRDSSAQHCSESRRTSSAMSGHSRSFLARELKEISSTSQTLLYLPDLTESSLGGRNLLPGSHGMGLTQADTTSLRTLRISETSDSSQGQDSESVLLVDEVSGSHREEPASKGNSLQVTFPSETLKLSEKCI

[4] = target: T1, prostaglandin E2 receptor 4 (EP4) receptor; conditions: oral administration, mouse model; cited from earlier work
[5] = mice; cited from earlier work
[6] = system: NAP1 C. difficile strain M7404; type: in vivo, C57BL/6 mice; conditions: mice, NSAID given before or after infection, clinical NAP1/027 isolate; indomethacin 10 mg/kg gavage, ibuprofen 5 mg/kg in drinking water
C. difficile [7] = assay: Tissue PGE2 (ELISA) and histological colitis score in C. difficile infected mice treated with indomethacin; type: in vivo; conditions: for tissue damage and acute inflammation (colitis): blinded histological score: edema, neutrophilic inflammation, epithelial damage; for tissue PGE2 levels: indomethacin gavage once daily until day +4, ELISA
Protocol: FIG. 3. […] (A) Mice were infected with C. difficile and treated with indomethacin by gavage once daily starting on the day of infection until mice were euthanized on day +4. Tissue PGE2 concentrations were measured by ELISA. n=5 mice per group. (B) Histological assessment of colitis was performed in a blinded fashion. The score incorporates edema, neutrophilic inflammation, and epithelial damage. (C and D) Tissue cytokine and chemokine concentrations were measured by ELISA. n=5 mice per group. *P<0.05.

C. difficile [8] = conditions: C. difficile-infected mice, cited from earlier work

For `CCCC[C@](C)(O)C/C=C/[C@H]1[C@H](O)CC(=O)[C@@H]1CCCCCCC(=O)OC` (racemic) [misoprostol, (11a, 13E)-(±)-11,16-dihydroxy-16-methyl-9-oxoprost-13-en-1-oic acid methyl ester], the “binding to PGE2 EP receptors” value (PGE2 EP receptors) is given as “binds all 4 of the PGE2 EP receptors”, the diarrhea (NAP1/BI/027 strain M7404; infected mice, misoprostol vs vehicle/placebo) is given as “reduced diarrhea; also recorded: fared significantly better” and the CDI severity (NAP1/BI/027 strain M7404) is given as “reduced CDI severity”. The CDI severity (NAP1/BI/027 strain M7404; listed as Misoprostol) was “reduces CDI severity”, the death / survival (NAP1/BI/027 strain M7404; mouse, in vivo, ip) was “prevented death; also recorded: fared significantly better” and the “CREB phosphorylation, VEGF expression and angiogenesis” value (esophageal ulcer; esophageal ulcer) was “enhanced phosphorylation of CREB, stimulated VEGF expression and angiogenesis”. For the same compound, the esophageal ulcer healing (esophageal ulcer) was “accelerated esophageal ulcer healing”, the VEGF expression [1] was “stimulated VEGF expression” and the “increase of intracellular cAMP levels” value [1] was 163 fold. For the same compound, the “phosphorylation of CREB” value [1] was “induced phosphorylation of CREB”, the “C. difficile colonization levels” value (C. difficile strain 630) was “reduced C. difficile colonization levels” and the “protection of colonic mucosa against mucosal insults” value [2] was “potently protects human colonic mucosa”. For the same compound, the “CDI in indomethacin-exposed mice” value (strain M7404; INDO 10 mg/kg days −2 and −1, 1×10^4 spores M7404, 20 mg misoprostol i.p. daily) was “improves CDI” and the “survival, Log-rank (Mantel-Cox) test” value (strain M7404; mouse, in vivo, ip) was “not statistically significant”.
In the case of `Cc1cccc([C@@H](C)[C@H](O)/C=C/[C@@H]2[C@@H]3[C@H](C[C@H]2O)O/C(=C\CCCc2nn[nH]n2)C3(F)F)c1` [KAG-308], the colorectal carcinogenesis [3] is given as “prevented colorectal carcinogenesis” and the “onset of dextran sulfate sodium-induced colitis and mucosal healing” value [4] is given as “suppressed onset of dextran sulfate sodium-induced colitis and promoted mucosal healing”.
For `CCCCC[C@H](O)/C=C/[C@H]1[C@H](O)CC(=O)[C@@H]1C/C=C\CCCC(=O)O` [PGE2, Prostaglandin E2], the “colitis induced by DSS” value [5] is listed as “significantly improved colitis”.
In the case of `Nc1ncnc2c1ncn2[C@@H]1O[C@@H]2COP(O)(=S)O[C@H]2[C@H]1O` (some centres unmarked) [Rp-cAMP], the “action on the effects of misoprostol (cAMP, CREB phosphorylation, VEGF expression)” value [1] is given as “blocked”.
In the case of `Nc1ncnc2c1ncn2[C@@H]1O[C@@H]2COP(O)(=S)O[C@H]2[C@H]1O` (some centres unmarked) [Sp-cAMP], the “action on the effects of misoprostol (cAMP, CREB phosphorylation, VEGF expression)” value [1] is given as “mimicked”.
For `COc1ccc2c(c1)c(CC(=O)O)c(C)n2C(=O)c1ccc(Cl)cc1` [indomethacin], the “mortality in CDI” value [6] was “higher mortality”, the “tissue damage and acute inflammation (colitis)” value (C. difficile [7]) was “induced more tissue damage and acute inflammation” and the “tissue damage and acute inflammation (colitis)” value (C. difficile [7]; listed as Indomethacin) was “worsens colitis”. The “tissue PGE2 levels” value (C. difficile [7]) was “suppressed tissue PGE2 levels” and the “tissue PGE2 levels” value (C. difficile [7]; listed as Indomethacin) was “inhibits PGE2 production”.
For `CN[C@H](CC(C)C)C(=O)N[C@H]1C(=O)N[C@@H](CC(N)=O)C(=O)N[C@H]2C(=O)N[C@H]3C(=O)N[C@H](C(=O)N[C@H](C(=O)O)c4cc(O)cc(O)c4-c4cc3ccc4O)[C@H](O)c3ccc(c(Cl)c3)Oc3cc2cc(c3O[C@@H]2O[C@H](CO)[C@@H](O)[C@H](O)[C@H]2O[C@H]2C[C@](C)(N)[C@H](O)[C@H](C)O2)Oc2ccc(cc2Cl)[C@H]1O` [vancomycin], the “relapse of colitis after treatment” value (C. difficile [8]; with increased colonization levels and toxin production) is listed as “gradual return of colitis by day 16” and the resolution of colitis (C. difficile [8]) is listed as “accelerates resolution of colitis”.
